Data on 1 compound can be found in patent US12709609B2, “Crystalline form of Selinexor” (Karyopharm Therapeutics Inc., priority 2020, dated 2026).

A short description of data set [1]: Dynamic vapor sorption (DVS) moisture sorption isotherm. The class given is physicochemical. The protocol:
Sorption isotherms were obtained using a SMS DVS Intrinsic moisture sorption analyser, controlled by DVS Intrinsic Control software. The sample temperature was maintained at 25° C. by the instrument controls. The humidity was controlled by mixing streams of dry and wet nitrogen, with a total flow rate of 200 ml/min. The relative humidity was measured by a calibrated Rotronic probe (dynamic range of 1.0-100% RH), located near the sample. The weight change, (mass relaxation) of the sample as a function of % RH was constantly monitored by a microbalance (accuracy±0.005 mg). Typically, 5 to 30 mg of sample was placed in a tared mesh stainless steel basket under ambient conditions. The sample was loaded and unloaded at 40% RH and 25° C. (typical room conditions). A moisture sorption isotherm was performed as outlined below (2 scans per complete cycle). The standard isotherm was performed at 25° C. at 10% RH intervals over a 0-90% RH range. Typically, a double cycle (4 scans) was carried out. Data analysis was carried out within Microsoft Excel using the DVS Analysis Suite. [table] The sample was recovered after completion of the isotherm and re-analysed by XRPD.

A short description of data set [2]: Thermogravimetric analysis (TGA). Type of data set: physicochemical. The conditions noted are these: from ambient temperature to about 200° C., followed by sample degradation. The method, then:
TGA data were collected on a TA Instruments Q500 TGA, equipped with a 16 position auto-sampler. Typically, 5-10 mg of each sample was loaded onto a pre-tared aluminum DSC pan and heated to 10° C./min from ambient temperature to 350° C. A nitrogen purge at 60 ml/min was maintained over the sample. The instrument control software was Advantage for Q Series and Thermal Advantage and the data were analysed using Universal Analysis or TRIOS

`O=C(/C=C\n1cnc(-c2cc(C(F)(F)F)cc(C(F)(F)F)c2)n1)NNc1cnccn1` [crystalline Form ZL, (Z)-3-(3-(3,5-bis(trifluoromethyl)phenyl)-1H-1,2,4-triazol-1-yl)-N′-(pyrazin-2-yl) acrylohydrazide]: the “XRPD pattern after the DVS cycle compared with XRPD prior to the DVS cycle (form stability)” value in data set [1] (after DVS cycle 0-90% RH) was “identical”. Moreover, the DVS weight gain result in data set [1] (at 90% RH, 25° C., two DVS cycles) is listed as “about 0.16%”. The “moisture uptake behaviour in DVS” value in data set [1] (over 0-90% RH range) is “gradual reversible uptake”. Also, the “TGA weight change on heating” value in data set [2] is “No weight change”.
